Experimental data reported in patent publication US20080280837A1, “Biologically Active Compounds with Anti-Angiogenic Properties” (priority 2004, published 2008).

Target: T1, Human SST5 somatostatin receptor (SSTR5) (Homo sapiens, UniProt P35346)
T1 construct: expressed in transfected cells; host or cells: HEK-293 EBNA
Experiment: Filter plate assay for SST5 receptor, displacement of [125I]SST-14
Assay type: binding
Experimental: Receptor membrane preparations containing the desired cloned receptor (for example cloned human somatostatin receptor subtype 5, SSTR5) and radio-labeled ligand (for example 3-[^125I]iodotyrosyl^11 Somatostatin-14)) were diluted at the concentration required for testing and according to the specific parameters associated with the selected receptor-ligand combination, including receptor Bmax, ligand Kd and any other parameters necessary to optimize the experimental conditions. When tested for competition activity to the reference ligand, “compound 1” was mixed with membrane suspension and the radiolabeled reference ligand (with or without an excess of cold ligand to the receptor for determination of non-specific binding) and incubated at the temperature required by internal standard operating procedures. Following incubation, the binding reaction was stopped by the addition of ice-cold washing buffer and filtered on appropriate filters, which are then counted. Data analysis and curve-fitting was performed with XLfit (IDBS).
10 mM solutions of test compounds in 100% DMSO were prepared. ˜160 μl was used for each dilution (20 μl/well in triplicate).
A 1.25 mM assay stock was prepared by making a 1:8 dilution of the 10 mM solution. (To 30 μL of the 10 mM solution was added 210 μL milli-Q H2O. A 1:5 dilution series in milli-Q H2O was then prepared.
Assays were performed in triplicate at each concentration within the 1:5 dilution series: 250 μM, 50 μM, 10 μM, […], 0.4 μM, 0.08 μM, 0.016 μM, 0.0032 μM, etc. (for SST4 assay) and 125 μM, 10 μM, 2 μM, 1 μM, 0.5 μM, etc (for SST5 assay).
Human SST5 somatostatin receptor was transfected into HEK-293 EBNA cells. Membranes were suspended in assay buffer (50 mM Tris-HCl, 1 mM EGTA, 5 mM MgCl2, 10% sucrose, pH 7.5).
After thawing the frozen receptor preparation rapidly, receptors were diluted with binding buffer, homogenized, and kept on ice. • 1. Use Multiscreen glass fiber filter plates (Millipore, Cat No MAFCNOB10) precoated with o.5% PEI for ˜2 hr at 4° C. Before use add 200 μl/well assay buffer and filter using Multiscreen Separation System. • 2. Incubate 5.5 μg of membranes (40 μl of a 1:40 dilution), buffer and [^125I]SST-14 (4 nM, ˜80 000 cpm, 2000 Ci/mmol) in a total volume of 200 μl for 60 min at 25° C. […] Prepare serial dilutions (1:5) of compounds, as described above and instead of adding SST-14 in well, add 20 μl of compounds (Table 1). • 3. Filter using Multiscreen Separation System with 5×0.2 ml ice-cold Assay buffer. • 4. Remove the plastic underdrain and dry plate in oven for 1 hr at 40° C. • 5. Seal tape to the bottom of the plate. • 6. Add 50 μl/well scintillant (Supermix, Wallac, Cat No 1200-439). • 7. Seal and count in the BJET, program 2.
In primary screening experiments compounds were tested in duplicate for a particular concentration.

T1 sequence (P35346 whole entry): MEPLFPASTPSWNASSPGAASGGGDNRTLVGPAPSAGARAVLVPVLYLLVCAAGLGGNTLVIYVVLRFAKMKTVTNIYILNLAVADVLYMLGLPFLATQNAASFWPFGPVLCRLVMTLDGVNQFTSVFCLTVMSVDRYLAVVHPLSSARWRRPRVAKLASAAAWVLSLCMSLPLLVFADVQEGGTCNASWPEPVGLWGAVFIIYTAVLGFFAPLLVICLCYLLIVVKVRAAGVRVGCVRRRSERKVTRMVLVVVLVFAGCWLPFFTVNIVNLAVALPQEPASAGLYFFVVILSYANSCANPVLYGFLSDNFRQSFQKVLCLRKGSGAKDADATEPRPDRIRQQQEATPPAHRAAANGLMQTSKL

SMILES	SSTR5 Inhib 0.5 uM % (inhibition of binding of SST-14 to SSTR5)	SSTR5 Inhib 10 uM % (inhibition of binding of SST-14 to SSTR5)
COC[C@H]1OC(OCc2ccc(Cl)cc2)[C@H](NC(=O)CCCN)[C@@H](OCc2cccc(O)c2)[C@@H]1O (some centres unmarked) [Compound 113]	50%	83%
COC[C@H]1OC(OCCc2ccccc2)[C@H](NC(=O)CCCN)[C@@H](OCc2ccc(Cl)cc2)[C@@H]1O (some centres unmarked) [Compound 145]	45%	78%
COC1C(O)C(COCc2ccc(Cl)cc2)OC(OCCc2ccccc2)C1NC(=O)CCCN (centres unmarked) [Compound 141]	36%	78%
COC[C@H]1OC(OCc2ccc(Cl)cc2)[C@H](NC(=O)CCCNC(=N)N)[C@@H](OCc2ccc3ccccc3c2)[C@@H]1O (some centres unmarked) [Compound 160]	40%	74%
COC[C@H]1OC(OCc2ccc3ccccc3c2)[C@H](NC(=O)CNC(=N)N)[C@@H](OCc2ccc3ccccc3c2)[C@@H]1O (some centres unmarked) [Compound 137]	43%	79%
COC1C(O)C(COCc2ccc3ccccc3c2)OC(OCc2ccc(Cl)cc2)C1NC(=O)C1CCCN1 (centres unmarked) [Compound 51]	76%	92%
COC[C@H]1OC(OCc2ccc(-c3ccccc3)cc2)[C@H](NC(=O)CCCNC(=N)N)[C@@H](OCc2ccc(Cl)cc2)[C@@H]1O (some centres unmarked) [Compound 120]	46%	81%
COC[C@H]1OC(OCc2ccccc2)[C@H](NC(=O)CNC(=N)N)[C@H](OCc2ccc3ccccc3c2)[C@@H]1O (some centres unmarked) [Compound 162]	30%	74%
COC[C@H]1OC(OCc2ccc(Cl)cc2)[C@H](NC(=O)CCCN)[C@H](OCc2ccccc2)[C@@H]1O (some centres unmarked) [Compound 117]	46%	82%
CSC1OC(COCc2ccc(Cl)cc2)C(O)C(OCc2ccc(-c3ccccc3)cc2)C1NC(=O)CN (centres unmarked) [Compound 83]	61%	87%
COC[C@H]1OC(OCCc2ccccc2)[C@H](NC(=O)CCCNC(=N)N)[C@@H](OCc2ccc(Cl)cc2)[C@@H]1O (some centres unmarked) [Compound 168]	47%	72%
COC[C@H]1OC(OCc2ccccc2)[C@H](NC(=O)CCNC(=N)N)[C@H](OCc2ccc(-c3ccccc3)cc2)[C@@H]1O (some centres unmarked) [Compound 87]	43%	86%
COC[C@H]1OC(OCc2ccccc2)[C@H](NC(=O)CCCN)[C@H](OCc2ccc(Cl)cc2)[C@@H]1O (some centres unmarked) [Compound 59]	66%	90%
COC[C@H]1OC(OCc2ccc3ccccc3c2)[C@H](NC(=O)CCCN)[C@H](OCc2ccc(Cl)cc2)[C@@H]1O (some centres unmarked) [Compound 20]	76%	97%
COC[C@H]1OC(OCc2ccccc2)[C@H](NC(=O)CCCNC(=N)N)[C@@H](OCc2ccc(-c3ccccc3)cc2)[C@@H]1O (some centres unmarked) [Compound 165]	37%	73%
CSC1O[C@H](COCc2ccccc2)[C@@H](O)[C@@H](OCc2ccc3ccccc3c2)[C@H]1NC(=O)CCCNC(=N)N (some centres unmarked) [Compound 91]	53%	86%
COC[C@H]1OC(OCc2ccc(-c3ccccc3)cc2)[C@H](NC(=O)CCCNC(=N)N)[C@@H](OCc2ccc(Cl)cc2)[C@@H]1O (some centres unmarked) [Compound 93]	47%	86%
CSC1O[C@H](COCc2ccc(Cl)cc2)[C@@H](O)[C@@H](OCc2ccc(-c3ccccc3)cc2)[C@H]1NC(=O)CNC(=N)N (some centres unmarked) [Compound 111]	36%	83%
COC[C@H]1OC(OCc2ccccc2)[C@H](NC(=O)CCNC(=N)N)[C@H](OCc2ccc(Cl)cc2)[C@@H]1O (some centres unmarked) [Compound 102]	42%	84%
COC[C@H]1OC(OCc2ccccc2)[C@H](NC(=O)CCCN)[C@@H](OCc2cccc(O)c2)[C@@H]1O (some centres unmarked) [Compound 144]	45%	78%
COC[C@H]1OC(OCc2ccc3ccccc3c2)[C@H](NC(=O)CCCNC(=N)N)[C@@H](OCc2ccc(Cl)cc2)[C@@H]1O (some centres unmarked) [Compound 103]	48%	84%
CSC1O[C@H](COCc2ccc(-c3ccccc3)cc2)[C@@H](O)[C@@H](OCc2ccc3ccccc3c2)[C@H]1NC(=O)CNC(=N)N (some centres unmarked) [Compound 139]	34%	79%

More lines, now with the values ahead:

SSTR5 Inhib 0.5 uM % (inhibition of binding of SST-14 to SSTR5)	SSTR5 Inhib 10 uM % (inhibition of binding of SST-14 to SSTR5)	SMILES
80%	96%	COC[C@H]1OC(OCc2ccc3ccccc3c2)[C@H](NC(=O)CCCNC(=N)N)[C@@H](OCc2ccc(Cl)cc2)[C@@H]1O (some centres unmarked) [Compound 23]
71%	91%	COC[C@H]1OC(OCc2ccc(-c3ccccc3)cc2)[C@H](NC(=O)CCCNC(=N)N)[C@@H](OCc2ccc(-c3ccccc3)cc2)[C@@H]1O (some centres unmarked) [Compound 55]
50%	80%	NCCC(=O)N[C@H]1CO[C@H](COCc2ccc(-c3ccccc3)cc2)[C@@H](O)[C@H]1OCc1ccc(Cl)cc1 [Compound 124]
39%	81%	CO[C@H]1[C@H](O)[C@@H](COCc2ccc(Cl)cc2)OC(OCc2ccc(Cl)cc2)[C@@H]1NC(=O)CCCN (some centres unmarked) [Compound 122]
36%	80%	COC[C@H]1OC(OCc2ccc(-c3ccccc3)cc2)[C@H](NC(=O)CNC(=N)N)[C@@H](OCc2ccc(-c3ccccc3)cc2)[C@@H]1O (some centres unmarked) [Compound 129]
85%	96%	COC[C@H]1OC(OCc2ccc(-c3ccccc3)cc2)[C@H](NC(=O)CCCN)[C@@H](OCc2ccc(-c3ccccc3)cc2)[C@@H]1O (some centres unmarked) [Compound 31]
61%	95%	COC[C@H]1OC(OCCc2ccccc2)[C@H](NC(=O)CCN)[C@H](OCc2ccc(Cl)cc2)[C@@H]1O (some centres unmarked) [Compound 34]
18%	89%	CO[C@H]1[C@H](O)[C@@H](COCc2ccc(-c3ccccc3)cc2)OC(OCc2ccc(-c3ccccc3)cc2)[C@@H]1NC(=O)CNC(=N)N (some centres unmarked) [Compound 70]
57%	80%	CO[C@H]1[C@H](O)[C@@H](COCc2ccc3ccccc3c2)OC(OCc2ccc3ccccc3c2)[C@@H]1NC(=O)CNC(=N)N (some centres unmarked) [Compound 126]
46%	76%	CSC1O[C@H](COCc2ccccc2)[C@@H](O)[C@@H](OCc2ccc(-c3ccccc3)cc2)[C@H]1NC(=O)CCCNC(=N)N (some centres unmarked) [Compound 155]
40%	81%	COC[C@H]1OC(OCc2ccc(Cl)cc2)[C@H](NC(=O)CCNC(=N)N)[C@@H](OCc2ccc(Cl)cc2)[C@@H]1O (some centres unmarked) [Compound 123]
65%	91%	COC[C@H]1OC(OCc2ccc(-c3ccccc3)cc2)[C@H](NC(=O)CCCNC(=N)N)[C@@H](OCc2ccc(-c3ccccc3)cc2)[C@@H]1O (some centres unmarked) [Compound 58]
